In the NIST ThermoML archive (doi:10.1021/je400655j):
Numbers after ± are expanded uncertainties.

Experiment: wn = mass fraction of the nth substance listed
Details: 101 kPa, Liquid; for mass density: Vibrating tube method; for viscosity: Concentric cylinders viscometry

CC(CC(C)(C)C)CP(=O)([O-])CC(C)CC(C)(C)C.CCCCCCCCCCCCCC[P+](CCCCCC)(CCCCCC)CCCCCC + O
Details | mass density, w2 = 0.05 [kg/m3] | mass density, w2 = 0.1 [kg/m3] | viscosity, w2 = 0.05 [mPa·s] | viscosity, w2 = 0.1 [mPa·s]
293 K | 899.1 ± 4.1 | 907.3 ± 3.9 | – | –
298 K | 895.8 ± 4.1 | 903.9 ± 3.9 | 281 ± 19 | 174 ± 12
303 K | 892.6 ± 4.1 | 900.7 ± 3.9 | 203 ± 14 | 137 ± 9
308 K | 889.3 ± 4.1 | 897.4 ± 3.9 | 150 ± 10 | 103 ± 7
313 K | 886.1 ± 4 | 894.1 ± 3.8 | 114 ± 8 | 78 ± 5
318 K | 882.9 ± 4 | 890.7 ± 3.8 | 87 ± 6 | 59 ± 4
323 K | 879.7 ± 4 | 887.4 ± 3.8 | 68 ± 4 | 47 ± 3
328 K | 876.5 ± 3.9 | 884 ± 3.8 | 54 ± 4 | 37 ± 2
333 K | – | – | 44 ± 3 | 31 ± 2
338 K | – | – | 36 ± 2 | 25 ± 2
343 K | – | – | 31 ± 2 | 23 ± 2

CC(=O)[O-].CCCCn1cc[n+](C)c1 [1-butyl-3-methylimidazolium acetate] + CC(CC(C)(C)C)CP(=O)([O-])CC(C)CC(C)(C)C.CCCCCCCCCCCCCC[P+](CCCCCC)(CCCCCC)CCCCCC
Details | mass density, w1 = 0.2 [kg/m3] | mass density, w1 = 0.5 [kg/m3] | viscosity, w1 = 0.2 [mPa·s] | viscosity, w1 = 0.5 [mPa·s]
293 K | 908.8 ± 3.8 | 937.1 ± 3 | – | –
298 K | 905.6 ± 3.8 | 933.6 ± 3 | 160 ± 11 | 33 ± 2
303 K | 902.4 ± 3.7 | 930.1 ± 3 | 123 ± 8 | 27 ± 2
308 K | 899.3 ± 3.7 | 926.6 ± 2.9 | 97 ± 6 | 22 ± 2
313 K | 896.1 ± 3.7 | 923.1 ± 2.9 | 77 ± 5 | 19 ± 1
318 K | 893 ± 3.7 | 919.6 ± 2.9 | 63 ± 4 | 17 ± 1
323 K | 889.9 ± 3.6 | 916.1 ± 2.9 | 52 ± 3 | 15 ± 1
328 K | 886.7 ± 3.6 | 912.6 ± 2.9 | 44 ± 3 | 13 ± 1
333 K | 883.5 ± 3.6 | 909.2 ± 2.8 | 37 ± 2 | 12 ± 1
338 K | 880.3 ± 3.6 | 905.7 ± 2.8 | 32 ± 2 | 11 ± 1
343 K | 877.1 ± 3.5 | 902.2 ± 2.8 | 28 ± 2 | 10 ± 1
